{"source": "patent US20100216706A1", "about": "“Ghrelin Protects Substantia Nigra Dopamine Neurons” (priority 2007, published 2010)", "key": {"TH neurons in the SNpc": {"tested_on": "TH neurons in the SNpc", "assay": "MPTP-induced TH cell loss in the SNpc (stereology, optical fractionator)", "assay_type": "in vivo, mice", "text": "(§1) Control animals were given saline. Animals were sacrificed and perfused 7 days later and processed for immunohistochemistry or HPLC for dopamine (DA) and metabolites. n=8-10 for ghrelin wt and ko mice; n=6 for GHSR wt/wt, homo/wt and homo/TG.\nTH cell quantification: Free floating sections were stained with TH (1:5000, Chemicon International) and visualized with DAB using standard procedures.\nUnbiased stereology methods were used to quantify TH immunoreactive cells in the SNpc. Cells were visualized by a Zeiss microscope and relayed via a MicroFibre digital camera (www(dot)optronics(dot)com) to a computer where they were counted using the optical fractionator with the sophisticated Stereolnvestigator software (MicroBrightField, Williston, Vt., USA). Every fourth section was collected through the SNpc, and TH cells were counted in grids randomly positioned by the software in the outlined counting area through all optical planes, thus creating a 3 dimensional counting area.\n(§2) The observation that ghrelin promotes SNpc DA neuronal function, mitochondrial respiration and number raises the possibility that ghrelin may protect nigrostriatal dopaminergic system during increased cellular stress. […] In brief, mice were treated with daily IP injections of exogenous ghrelin (10 nmols) or saline for 14 days. Mice were injected immediately before the dark phase, and food was removed overnight since calorie intake and postprandial increases in glucose and insulin can suppress the action of ghrelin (Cummings et al., 2006, Physiol Behav 89: 71-84). Both ghrelin and saline treated mice were given 3 grams of standard chow the following morning at 9 am. […] After the subsequent 7 days of treatment (saline or ghrelin), TH immunoreactive neurons were counted blind by two independent researchers using the non-biased optical fractionator on the stereology program, Stereoinvestigator."}, "SNpc DA neurons": {"tested_on": "SNpc DA neurons", "assay": "Whole-cell patch clamp, action potential firing of SNpc DA neurons in brain slices", "assay_type": "cell-based, mice and rats", "procedure": "Patch clamp recordings from VTA dopamine neurons: Brain slices (300 μm) containing the substantia nigra pars compacta (SNpc), were cut on a vibratome from 2-3 week old male and female mice (n=9) and rats (n=5). Briefly, animals were anesthetized with Nembutal (80 milligram/kilogram body weight) and then decapitated. The brains were rapidly removed and immersed in cold (4° C.) oxygenated bath solution (containing (mM): NaCl 150; KCl 2.5; CaCl2 2; MgCl2 2; Hepes 10; and glucose 10, pH 7.3 with NaOH). After being trimmed to contain only the SNpc, slices were transferred to a recording chamber where they were constantly perfused with bath solution at 2 milliliter/minute. Dopamine neurons in the SNpc were identified by presence of a large Ih current (>100 pA) evoked by hyperpolarizing voltage steps from −50 to −120 mV for 2 seconds. This approach identifies dopaminergic cells with >90% accuracy (Abizaid et al., 2006, J Clin Invest. 116(12):3229-39. Epub 2006 Oct. 19). In brain slices, whole-cell current clamp was used to observe spontaneous action potentials. Slices were maintained at 33° C. and perfused continuously with ASCF (bubbled with 5% CO2 and 95% O2) containing (in mM): NaCl, 124; KCl, 3; CaCl2, 2; MgCl2, 2; NaH2PO4, 1.23; NaHCO3, 26; glucose, 10, pH 7.4 with NaOH. Ghrelin was applied to the recording chamber via bath application. The pipette solution contained (mM): gluconic acid 140; CaCl2, MgCl2 2; EGTA 1; HEPES 10; Mg-ATP; 4, and Na2-GTP; 0.5, pH 7.3 with KOH\nTo address this question, an experiment using whole-cell patch clamp electrophysiology was performed to investigate whether ghrelin directly activates SNpc DA neurons. DA neurons (n=11) in the SNpc were identified based on their characteristic Ih currents (Johnson et al., 1992, J Neurosci 12: 483-8). Spontaneous action potentials were recorded under current clamp for at least 10 minutes of stable recording. Ghrelin (1-3 μmol) was applied via bath application."}, "[1]": {"tested_on": "UCP2-dependent mitochondrial respiration", "assay": "Uncoupled mitochondrial respiration in pooled midbrain of UCP2 wt or ko mice", "assay_type": "in vivo", "conditions": "ghrelin IP 30 nmol, 3 hours", "procedure": "Rats were used as the mitochondrial yield after isolation is much higher than the yield from mice. Mitochondrial respiration was also examined in the pooled midbrain of UCP2 ko and wt mice (3 pooled brains), 3 hours after ghrelin injection (IP 30 nmol).\nMitochondria were pooled from the SN-VTA (4 animals=1, total n=4) and isolated by differential centrifugation. Because of the size of the tissue dissected, it was impossible to solely isolate only the SNc, and as such the results are reported as SN-VTA. Briefly, the SN-VTA was rapidly dissected and homogenized in isolation buffer (215 mM Mannitol, 75 mM sucrose, 0.1% fatty acid free BSA, 20 mM Hepes, 1 mM EGTA, pH adjusted to 7.2 with KOH). The homogenate was spun at 1300×g for 3 minutes. The supernatant was removed, and the pellet was resuspended with isolation buffer and spun again at 1300×g for 3 minutes. The 2 sets of supernatant from each sample were topped off with isolation buffer and spun at 13000×g for 10 minutes. The supernatant was discarded, and this step was repeated. After this second spin at 13000×g, the supernatant was discarded, and the pellets were resuspended with isolation buffer without EGTA and spun at 10000×g for 10 minutes. The final mitochondrial pellet was resuspended with 50 μl of isolation buffer without EGTA. Protein concentrations were determined with a BCA protein assay kit (Pierce, Rockford, Ill., USA).\nMitochondrial respirations were assessed using a Clark-type oxygen electrode (Hansatech Instruments, Norfolk, England) at 37° C. with pyruvate and malate (5 mM and 2.5 mM) as oxidative substrates in respiration buffer (215 mM Mannitol, 75 mM sucrose, 0.1% fatty acid free BSA, 20 mM Hepes, 2 mM MgC1, 2.5 mM KH2PO4, pH adjusted to 7.2 with KOH). Following the addition of ADP and oligomycin, UCP-mediated proton conductance was measured as increased fatty acid-induced respiration (Echtay et al., 2002), which was then compared to state 4 respiration induced by oligomycin, an inhibitor of H^+ transporting ATP synthase.\nTo test whether UCP2 is important in ghrelin-induced midbrain respiration, mitochondria were isolated from the midbrain of pooled UCP2 wt or ko mice treated with ghrelin or saline, and uncoupled respiration was measured."}, "striatal dopamine": {"tested_on": "striatal dopamine", "assay": "Striatal dopamine after MPTP (HPLC)", "assay_type": "in vivo, mice", "conditions": "ghrelin 14 days", "procedure": "as §1\nThe samples were subsequently thawed in 0.4 ml of chilled 0.1 M perchloric acid and sonicated. Aliquots were taken for protein quantification using a spectrophotometric assay. Other aliquots were centrifuged, and DA levels were measured in supernatants by high pressure liquid chromatography (HPLC) with electrochemical detection. Concentrations of DA and metabolites were expressed as ng/mg protein (mean±SEM).\nas §2"}}, "note": "No end group written: not given here. *: point of attachment. Octanoyl = CCCCCCCC(=O)*", "data": [{"substance": "ghrelin (GSS(Octanoyl)FLSPEHQRVQQRKESKKPPAKLQPR; listed as Homo sapiens) [28 amino acid acyl-peptide esterified with octanoic acid on Ser3; endogenous ligand of GHSR]", "values": [{"measurement": "Total TH neurons in SNpc, ghr/MPTP", "setting": "TH neurons in the SNpc; ghrelin 10 nmols IP daily 14 days, MPTP 30 mg/kg IP on day 7", "result": "7836±285"}, {"measurement": "Total TH neurons in SNpc, ghr/sal", "setting": "TH neurons in the SNpc; ghrelin 10 nmols IP daily 14 days, saline on day 7, sal/sal 11283±342", "result": "11616±318"}, {"measurement": "Dopamine cell loss compared to control mice, ghrelin treatment", "setting": "TH neurons in the SNpc; ghrelin 14 days, MPTP on day 7", "result": 33, "unit": "%"}, {"measurement": "SNpc volume, ghr/MPTP", "setting": "TH neurons in the SNpc; ghrelin 14 days, MPTP on day 7", "result": "not significantly different"}, {"measurement": "SNpc volume, ghr/sal vs sal/sal", "setting": "TH neurons in the SNpc; ghrelin 14 days, saline on day 7", "result": "not significantly different"}, {"measurement": "Action potential frequency", "setting": "SNpc DA neurons; ghrelin 1-3 μmol bath application, control 100%", "result": "131.9%±17.5"}, {"measurement": "Identified DA neurons that responded", "setting": "SNpc DA neurons; ghrelin bath application", "result": "10 of 11"}, {"measurement": "Action potential frequency after washout", "setting": "SNpc DA neurons; washout of ghrelin, control 100%", "result": "101.9%±4.6"}, {"measurement": "Basal uncoupled respiration after oligomycin, UCP2 ko mice", "setting": "[1]; ko saline 34.2±2.6", "result": "39.2±0.4"}, {"measurement": "Mitochondrial respiration after palmitate, UCP2 ko mice", "setting": "[1]; ko saline 96.0±7.5", "result": "109.7±2.9"}, {"measurement": "Basal uncoupled respiration after oligomycin, UCP2 wt mice", "setting": "[1]; wt saline 32.7±1.6", "result": "41.5±1.9"}, {"measurement": "Mitochondrial respiration after palmitate, UCP2 wt mice", "setting": "[1]; wt saline 106.3±5.3", "result": "134.5±4.5"}, {"measurement": "FCCP-driven respiration, UCP2 wt mice", "setting": "[1]; wt saline 352±14.1", "result": "472±12.7"}, {"measurement": "Loss of striatal dopamine vs controls, ghr/MPTP", "setting": "striatal dopamine; MPTP on day 7", "result": 45, "unit": "%"}, {"measurement": "Striatal dopamine concentration, ghr/MPTP", "setting": "striatal dopamine; MPTP on day 7", "result": "78.4±8.8", "unit": "ng/mg protein"}, {"measurement": "Striatal dopamine concentration, ghr/sal", "setting": "striatal dopamine; saline on day 7, sal/sal 147.4±10.2", "result": "141.8±7.5", "unit": "ng/mg protein"}]}]}
